Results reported in EP0406111A1, “Substituted arylamines and heteroarylamines, process for their preparation and pharmaceutical composition containing them” (SOCIETE DE CONSEILS DE […] D'APPLICATIONS SCIENTIFIQUES …, priority 1989, dated 1991).
Where two headings read alike, the source gives them in different places.

How the values were obtained:
[1] = target: T1, capture de (³H)dopamine par les synaptosomes striataux de rat (Rattus norvegicus, UniProt P23977); assay: biochemical
T1 construct: Les culots résultants P2 contenant les synaptosomes bruts sont ensuite utilisés sans purification supplémentaire; from tissue; host or cells: Wistar rat striatum, crude synaptosomes (P2 pellet)
T1 sequence (P23977 whole entry): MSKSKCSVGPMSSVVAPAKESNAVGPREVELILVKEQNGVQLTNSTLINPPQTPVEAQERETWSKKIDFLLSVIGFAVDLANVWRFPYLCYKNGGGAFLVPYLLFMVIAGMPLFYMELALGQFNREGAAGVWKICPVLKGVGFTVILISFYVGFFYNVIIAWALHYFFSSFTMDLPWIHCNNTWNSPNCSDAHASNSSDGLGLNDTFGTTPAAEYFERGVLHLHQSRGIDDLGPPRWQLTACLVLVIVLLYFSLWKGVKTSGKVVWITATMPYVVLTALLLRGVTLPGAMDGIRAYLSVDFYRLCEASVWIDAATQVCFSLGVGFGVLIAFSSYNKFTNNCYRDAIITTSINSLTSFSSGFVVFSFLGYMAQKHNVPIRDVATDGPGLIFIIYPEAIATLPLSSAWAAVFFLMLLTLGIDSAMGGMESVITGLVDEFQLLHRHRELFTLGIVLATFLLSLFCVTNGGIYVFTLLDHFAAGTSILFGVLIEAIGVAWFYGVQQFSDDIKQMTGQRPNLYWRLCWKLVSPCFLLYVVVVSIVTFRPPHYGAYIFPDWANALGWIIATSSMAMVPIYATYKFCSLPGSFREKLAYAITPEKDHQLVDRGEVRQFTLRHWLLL
Method: Ce test est pratiqué selon la méthode utilisée par Vignon et Lazdunski en opérant de la façon suivante. Des rats Wistar pesant 200-250g sont tués par dislocation cervicale. Leurs cerveaux sont rapidement prélevés et les striata sont dissé-qués sur la glace. Les striata sont ensuite homogéné-isés (10 allers-retours) avec un homogénéisant Potter dans 50 volumes de tampon Tris HCl 10 mM à pH 7,4 contenant 0,32 M de sucrose. L'homogénat est ensuite centrifugé à 1000g pendant 10min à 4°C, puis le surnageant obtenu est recentrifugé à 10000g pendant 20min à 4°C. Les culots résultants P2 contenant les synaptosomes bruts sont ensuite utilisés sans purification supplémentaire.
On ajoute alors de la dopamine tritiée ((³H)DA, Amersham) à une concentration finale de 5 nM pendant 5 min à 30°C, et on interrompt sa capture par filtration de 150 µl du milieu d'incubation sur des filtres en fibres de verre GF/B (Whatman). La radioactivité retenue par les filtres est mesurée dans un compteur à scintillation liquide (LKB)avec 3 ml d'ACS (Amersham) comme scintillant. La capture non spécifique est mesurée à 4°C dans des incubations parallèles : elle est ensuite sous-traite de la capture totale mesurée à 30°C.
Les composés à tester sont solubilisés au départ dans de l'eau à une concentration de 1mM et les autres concentrations sont obtenues par des dilutions successives de cette solution mère dans l'eau.

[2] = target: T2, complexe de recapture de la dopamine (Rattus norvegicus, UniProt P23977); assay: biochemical; assay type: binding; details: for Sélectivité IC50[^3H]TCP / IC50[^3H]BTCP: ratio of IC50 at the PCP receptor to IC50 at the dopamine reuptake complex
T2 construct: expériences de compétition sur les membranes de striatum préparées comme ci-dessus; from tissue; host or cells: rat striatal membranes
T2 sequence (P23977 whole entry, one chain of several): as the sequence (P23977 whole entry) above
Method: Exemple 35 : Affinité des composés pour les sites de liaison de la (³H)BTCP sur les membranes striatales de cerveaux de rats.
Les striata de cerveaux de rats rapidement disséqués dans la glace sont homogénéisés avec un ultra turax pendant 30 s (position 6) dans 50 volumes d'une solution de sucrose 0,32 M tamponnée par du Tris-HCl 10 mM à pH = 7,4. L'homogénat est centrifugé à 4°C à 1000g pendant 10 mln, puis le surnageant obtenu est centrifugé à 40000 g à 4°C pendant 30 min et les culots obtenus sont repris dans 1 ml de tampon par striatum.
L'affinité des composés pour le complexe de recapture de la dopamine est déterminée par des expériences de compétition sur les membranes de striatum préparées comme ci-dessus. Le ligand radioactif utilisé est la (³H)BTCP (Service des Molécules Marquées du CEA, Saclay France) à 55Ci/mmol.
Après 90 min à 4°C, 3 aliquots de 250 µl sont filtrés sous vide sur des filtres de fibre de verre GF/B (Whatman). La liaison non spécifique est obtenue dans des expériences parallè-les réalisées en présence de 10 µM de BTCP non marquée. Elle est soustraite de la liaison totale pour obtenir la liaison spécifique.

souris Swiss = assay: Locomotor activity of mice in the Boissier-Simon actimeter (Example 38); assay type: in vivo; details: 30 min after administration, beams crossed from 20th to 35th minute
Method: Exemple 38 : Mesure de l'activité locomotrice.
L'activité locomotrice de souris Swiss (mâles CD1, 25-30 g, Charles River, St Aubin lès Elbeuf, France) est mesurée dans l'actimètre Boissier-Simon (Apelex, Bagneux, France).
30 minutes après l'administration des composés à tester (10 mg/kg, i.p.), les souris sont introduites dans des cages individuelles en Plexiglass (L = 26 cm, l = 20 cm, h = 10 cm), équipées de deux cellules photoélectriques situées à 1 cm au-dessus du plancher. Chaque cellule est reliée à un compteur électromécanique. "L'activité locomotrice" correspond au nombre de rayons traversés, de la 20ème à la 35ème minute après introduction dans les cages d'actimétrie.

[3] = tested on: fixation de la (³H)BTCP dans le striatum de souris; assay: Inhibition of in vivo (3H)BTCP binding in mouse striatum (Example 40); details: mice, compound s.c. 60 min before i.v. (3H)BTCP, sacrifice 30 min later
Method: Exemple 40 : Etude de l'inhibition de la fixation "in vivo" de (³H)BTCP chez la souris.
Pour cette étude, on utilise des souris Swiss mâles pesant 20 à 25g. Les souris sont réparties par groupes et alimentées avec de la nourriture standard de laboratoire et de l'eau à volonté, en réalisant des cycles de lumière artificielle de 12h consécutives à partir de 7h du matin. Les expériences sont effectuées entre 10h et 18h. Les mesures de la fixation "in vivo" de la (³H)BTCP sont effectuées comme il a été décrit par Maurice et al, 1989, de la façon suivante.
On injecte aux souris par voie sous-cutanée le composé à tester dans 100µl de solution physiologique pour les composés n^o 4 et n^o 16 et dans 100µl d'un mélange 1:1 en volume de solution physiologique et de DMSO pour le composé n^o 26. 60 min après cette injection on leur injecte dans une veine de la queue (³H)BTCP à une dose de 5µCi dans 100µl d'un mélange de solution physiologique et d'éthanol à 5%. 30min après cette injection, on sacrifie les souris. Les striata de cerveaux sont rapidement disséqués et homogénéisés avec un ultra turrax (IKA Verk) réglage maximum pendant 20s dans 80 volumes d'un tampon Na₂HPO₄, HCl 50mM, pH=7,4 à 4°C. Deux aliquots de […] sont filtrées sous pression réduite sur des filtres GF/B (Whatman) prétraités par de la polyéthylène imine à 0,5% (Aldrich). On rince ensuite les filtres deux fois avec 5ml d'un tampon NaCl 50mM, tris-HCl 10mM, pH=7,4 à 4°C. La radioactivité fixée qui reste sur les filtres, et la radioactivité totale, obtenue à partir des deux aliquots de 200µl d'homogénats sont mesurées dans des flacons de 6ml contenant 3,5ml de ACS (Amersham) avec un spectrophotomètre à scintillation liquide Excel 1410 (LKB). La fixation non spécifique est définie comme la radioactivité présente dans chaque région après prétraitement des animaux avec de la BTCP (40mg/kg dans 100µl de solution saline), injectée par voie sous-cutanée, 60min avant l'injection de (³H)BTCP. Les résultats sont exprimés sous la forme des rapports radioactivité fixée / radioactivité libre (B/F) dans lesquels le taux de (³H)BTCP libre est estimé en soustrayant la radioactivité fixée de la radioactivité totale.

récepteur de la PCP = assay: Competition binding at the (3H)TCP sites on rat brain homogenates (Example 36); details: 1 nM (3H)TCP, 30 min at 25°C
Excerpt: Exemple 36 : Affinité des composés pour les sites de liaison de la (³H)TCP sur les homogénats de cerveaux de rats.
Dans cet essai on mesure les affinités des composés pour le récepteur de la PCP par des expériences de compétition sur des homogénats de cerveaux de rats. Le ligand radioactif utilisé est la (³H)TCP à une activité spécifique de 62 Ci/mmol (Service des Molécules Marquées, CEA Saclay France).
Les cerveaux de rats (sans le cervelet et le tronc cérébral) sont homogénéisés à l'ultra turax dans 20 volumes de tampon Hepes-Tris 50 mM, pH 7,7. Après centrifugation pendant 30 min à 15000 g le culot est repris dans le même volume de tampon et recentrifugé dans les mêmes conditions. Le culot final est repris dans du tampon Hepes-Tris 50 mM, pH 7,7 de façon à obtenir une concentration en protéine de 6 à 8 mg/ml.
Les expériences de compétition sont réalisées en incubant pendant 30 min les membranes (concentration finale en protéine : 0,6 à 0,8 mg/ml) en milieu tampon 5 mM Hepes-Tris, pH 7,7 à 25°C, en présence d'une concentration fixe de ligand tritié (1 nM)et de concentrations croissantes de composés à tester. Trois échantillons de 600 µL sont ensuite filtrés sur filtres de fibres de verre GF/B prétraités par du PEI (polyéthylénimine) à 0,1%. Les filtres sont rincés avec 3x5ml de tampon Tris-HCl 10 mM, NaCl 100 mM et la radioactivité retenue est mesurée dans un compteur à scintillation liquide. La liaison non spécifique est obtenue en présence de TCP […].

[4] = rat striatal synaptosomes, 5 nM (3H)DA, 5 min at 30°C, read-out: [3H] DA IC50
[5] = rat striatal membranes, 0,2 nM (3H)BTCP, 90 min at 4°C, read-out: [3H] BTCP IC50

SMILES	IC50 [1, 4]	IC50 [2, 5]	other results
c1ccc2cc(C3(N4CCCCC4)CCCCC3)ccc2c1 [composé n^o 16, (naphtyl-2)-1 (pipéridi-no-1)-1 cyclohexane]	36.3 nM	14.8 nM	Activité locomotrice Variation (%) par rapport aux témoins (100%) pour la dose 10 mg/kg,i.p. (souris Swiss): +269±57%; ID₅₀ (mg/kg) [3]: 2,66 mg/kg
CC1CC(C)CN([C@]2(c3cc4ccccc4s3)CC[C@H](C)CC2)C1 (relative stereo) [composé n^o 13, (benzo(b)thiophényl-2)-1-r-((diméthyl-3,5 pipéridino)-1)-1 c-méthyl-4 cyclohexane]	425 nM	635 nM	–
OCC1CCCN(C2(c3cc4ccccc4s3)CCCCC2)C1 (stereo not drawn) [composé n^o 9, (benzo(b)thiophényl-2)-1 ((hydroxyméthyl-3 pipéridino)-1)-1 cyclohexane]	20.9 nM	18.1 nM	Activité locomotrice Variation (%) par rapport aux témoins (100%) pour la dose 10 mg/kg,i.p. (souris Swiss): +416±36%
CC(=O)OCC1CCCN(C2(c3cc4ccccc4s3)CCCCC2)C1 (stereo not drawn) [composé n^o 15, acétate de (benzo(b)-thiophényl-2)-1 ((hydroxyméthyl-3 pipéridino)-1)-1 cyclohexane]	44.5 nM	24 nM	–
C[C@H]1CCCC[C@@]1(c1cc2ccccc2s1)N1CCCCC1 (relative stereo) [composé n^o 24, (benzo(b)thiophényl--2)-1 c-méthyl-2-r-(pipéridino-1)-1 cyclohexane]	30.6 nM	14.7 nM	Activité locomotrice Variation (%) par rapport aux témoins (100%) pour la dose 10 mg/kg,i.p. (souris Swiss): +101±23%
CCN(CC)C1(c2cc3ccccc3s2)CCCCC1 [composé n^o8, (benzo(b)thiophényl-2)-1 (diéthylamino-1)-1 cyclohexane]	–	–	IC50 [1]: 20.1 nM; IC50 [2]: 16.7 nM; Activité locomotrice Variation (%) par rapport aux témoins (100%) pour la dose 10 mg/kg,i.p. (souris Swiss): +52±21%
c1ccc2sc(C3(N4CCC5(CC4)OCCO5)CCCCC3)cc2c1 [composé n^o 5, (benzo(b)thiophényl-2)-1 ((éthylènekétal-4 pipéridino)-1)-1 cyclohexane]	65.7 nM	35.5 nM	Sélectivité IC50[^3H]TCP / IC50[^3H]BTCP [2]: >>2816; IC50 (récepteur de la PCP): > 100000 nM
CC1CCN(C2(c3cc4ccccc4s3)CCCCC2)CC1 [composé n^o 7, (benzo(b)thiophényl-2)-1 ((méthyl-4 pipéridino)-1)-1 cyclohexane]	11.5 nM	30.8 nM	–
CC1CC(C)CN(C2(c3cc4ccccc4o3)CCCC(C)C2)C1 (stereo not drawn) [composé n^o 14, (benzo(b)furannyl-2)-1-r-((diméthyl-3,5 pipéridino)-1)-1 t-méthyl-3 cyclohexane]	2740 nM	2210 nM	–
c1ccc2c(C3(N4CCCCC4)CCCCC3)cccc2c1 [composé n^o 17, (naphtyl-1)-1 (pipéridino-1)-1 cyclohexane]	3250 nM	2560 nM	–
C[C@H]1CCC[C@@](c2cc3ccccc3s2)(N2CCCCC2)C1 (relative stereo) [composé n^o 22, (benzo(b)thiophényl-2)-1 c-méthyl-3-r-(piperidino-1)-1 cyclohexane]	691 nM	369 nM	–
CC1CCCCC1(c1cc2ccccc2s1)N1CCCCC1 (stereo not drawn) [composé n^o 25, (benzo(b)thiophényl-2)-1 t-méthyl-2--r-(pipéridino-1)-1 cyclohexane]	1280 nM	1480 nM	–
ICC1CCCN(C2(c3cc4ccccc4s3)CCCCC2)C1 (stereo not drawn) [composé n^o 11]	54.3 nM	26 nM	Sélectivité IC50[^3H]TCP / IC50[^3H]BTCP [2]: >>3846; IC50 (récepteur de la PCP): > 100000 nM
ClCC1CCCN(C2(c3cc4ccccc4s3)CCCCC2)C1 (stereo not drawn) [composé n^o 12, (benzo(b)thiophényl-2)-1 ((chlorométhyl-3 pipéridino)-1)-1 cyclohexane]	107 nM	102 nM	–
CC1CCCC(c2cc3ccccc3s2)(N2CCCCC2)C1 (stereo not drawn) [composé n^o 23, (benzo(b)thiophényl-2)-1 t-méthyl-3-r-(pipéridino-1)-1 cyclohexane]	606 nM	590 nM	–
